Experimental data taken from patent publication US11407999B2, “Pharmaceutical composition for preventing or treating angiogenesis relating ocular diseases comprising inhibitors of MCT expression or activity” (Seoul National University R&DB Foundation, priority 2019, dated 2022).

Experiments:
THP-1 macrophages = assay: VEGF expression/secretion in lactic acid-treated PMA-differentiated THP-1 macrophages (real-time PCR, ELISA); type: cell-based, human
Description: (§1) HUVEC (Human umbilical vein endothelial cell; Lonza Ltd., Basel, Switzerland) was cultured in EGM-2 (endothelial growth medium-2; Lonza). A human acute monocytic leukemia THP-1 cell line was maintained in RPMI medium containing 10% FBS (Gibco). 15 ng/ml PMA (Sigma-Aldrich Corp., St. Louis, Mo., USA) and THP-1 cells were cultured under the conditions of 37° C., 5% CO2 for 2 days, and the THP-1 cells were differentiated into macrophages.
The confluent ARPE-19 monolayer cells maintained in the 24-well plate were incubated with 10 mM L(+)-lactic acid (Sigma-Aldrich Corp.) under presence or absence of α-CHC (α-cyano-4-hydroxycinnamic acid; Sigma-Aldrich) which was an MCT inhibitor (monocarboxylate transporter inhibitor) of 3 mM for a specified period. HUVEC was inoculated to a 24-well plate at a density of 1×10^5/well, and when cells reached 60% to 70% confluence, cells were exposed to 10 mM L(+)-lactic acid under presence or absence of 3 mM α-CHC. The THP-1 cells were inoculated in a 24-well plate at a density of 3)(10^5/well, and they were differentiated into macrophages by PMA treatment, and then were cultured with 20 mM L(+)-lactic acid under presence or absence of 3 mM α-CHC.
In addition, the THP-1 cells were inoculated to a 24-well plate at a density of 3)(10^5/well, and were differentiated into macrophages by PMA treatment, and then were cultured with 20 mM L(+)-lactic acid, by treating SR13800 (Tocris Bioscience, Bristol, UK) at a concentration of 0.5 to 2 μM and AR-C155858 at a concentration of 300 to 500 nM, respectively, thereto.
Cells were treated with lactic acid for 24 hours. The medium was collected and centrifuged at 587 g for 5 minutes and particles were removed and stored at −80° C. before performing ELISA.
(§2) The retina and RPE-choroid tissue were isolated from the control (naive; normal group in which CNV was not induced) CNV mouse (on day 3 after laser irradiation) or diabetic retinopathy mouse (on week 20 after STZ administration), and the isolated tissue was homogenized in ice-cold RIPA lysis buffer (Thermo Scientific, Rockford, Ill., USA) containing 1% protease inhibiting cocktail and 1% phosphatase inhibiting cocktail (GenDEPOT, Katy, Tex., USA). After centrifuging at 15,871 g for 15 minutes, the isolated supernatant was used for ELISA analysis. Secretion of VEGF was measured using ELISA Duoset system (R & D Systems, Minneapolis, Minn., USA) according to the manufacturer's instructions.
(§3) Total RNA was extracted in cells using trizole (Invitrogen, Carlsbad, Calif., USA) according to the manufacturer's instructions. RNA concentration/quality was evaluated using a nanodrop spectrophotometer (NanoDrop Technology, Wilmington, Del., USA). An equal amount of RNA was under reverse transcription to cDNA using a reverse transcription kit (Enzynomics, Daejeon, Korea), and quantitative real-time PCR (ABI PRISM 7900, Applied Biosystems) was performed using SYBR Green PCR Master Mix (Applied Biosystems, Foster City, Calif., USA) to measure gene expression. In 12 minutes at 95° C., a cycle consisting of 10 seconds at 95° C. and 30 seconds at 60° C. was performed 50 times.
Relative mRNA expression of each sample was standardized by β-actin and RPL37A, and statistics were analyzed using Student's unpaired t-test. The sequences of primers used for amplification were disclosed in the following Table 1.

[1] = test system: diabetic retinopathy-induced mice; assay: IB4 staining of retina of STZ diabetic retinopathy-induced mice (bleeding and angiogenesis); type: in vivo, mouse; conditions: intraocular (intravitreal) injection, FIG. 14
Description: (§4) After administering STZ (streptozotocin, Sigma) to the peritoneal cavity of male C57BL6/J mice aged 7 to 8 weeks, whether high blood glucose was induced was confirmed by measuring blood glucose in 2 days. Mice of which blood glucose was induced to 400 mg/dL or more were selected, and used in the following experiment. From about 10 weeks after administering STZ, diabetic retinopathy began to appear.
(§5) At about day 140 after administrating STZ to the diabetic retinopathy-induced mice, 3 mM a-CHC 2 μl dissolved in PBS, 2 μM SR13800 2 μl dissolved in PBS, or PBS (vehicle) […] was intravitreally injected and it was used in the following experiment.
Eyes of mice in which diabetes was induced by STZ, prepared by the method of Referential example 3 were extracted and fixed in 4% paraformaldehyde for 1 hour. The anterior segment was removed, and then the retinal tissue was cultured with FITC-conjugated isolectin B4 (Sigma) at 4° C. overnight. After washing with PBS for 10 minutes 10 times using an orbital shaker at a room temperature, the stained tissue was examined under Olympus FV1000 Confocal Scanning Scope.

[2] = test system: diabetic retinopathy-induced mice; assay: ELISA of VEGF protein in retina and RPE-choroid of STZ diabetic retinopathy-induced mice; type: in vivo, mouse; conditions: intravitreal 2 μM SR13800 2 μl, FIG. 13
Description: as §4, §5, §2

CNV mice [3] = assay: ELISA of VEGF protein in RPE/choroid and retina of CNV mice; type: in vivo, mouse; conditions: RPE/choroid tissue of CNV mice, vs vehicle group, FIG. 8e
Description: (§6) Female C57BL/6J mice aged 7 to 8 weeks were anesthetized by intraperitoneally injecting a mixture of Ketamine 100 mg/kg and Xylazine 10 mg/kg, and by dropping 1% tropicamide (Alcon Laboratories Inc., Fort Worth, Tex., USA) in eyes, the pupils of the mice were expanded. Laser was irradiated in a direction of 3, 6, 9 and 12 o'clock direction of the 2 disc diameter in an optic disc by 831-nm 106 diode laser photocoagulation method (75 μm spot size, 0.1 sec duration time, 120 mW). Bubbling or pop sensing by laser photocoagulation was considered a successful rupture of the Bruch membrane. […]
as §2, with “After centrifuging at 15,871 g for 15 minutes, the isolated supernatant was used for ELISA analysis.” left out

CNV mice [4] = assay: Immunohistological staining for F4/80 and VEGF in RPE-choroid of CNV mice; type: in vivo, mouse; conditions: day 3 after laser irradiation
Description: (§7) Female C57BL/6J mice aged 7 to 8 weeks were anesthetized by intraperitoneally injecting a mixture of Ketamine 100 mg/kg and Xylazine 10 mg/kg, and by dropping 1% tropicamide (Alcon Laboratories Inc., Fort Worth, Tex., USA) in eyes, the pupils of the mice were expanded. Laser was irradiated in a direction of 3, 6, 9 and 12 o'clock direction of the 2 disc diameter in an optic disc by 831-nm 106 diode laser photocoagulation method (75 μm spot size, 0.1 sec duration time, 120 mW). Bubbling or pop sensing by laser photocoagulation was considered a successful rupture of the Bruch membrane.
(§8) To evaluate the anti-angiogenic effect by blocking lactic acid intake in macrophages, on day 1 after laser irradiation, when the macrophages began to infiltrate the laser irradiation site (image area), 3 mM α-CHC 2 μl or PBS (vehicle) 2 μl dissolved in PBS was intravitreally injected, and it was used in the following experiment.
Laser was irradiated to mice by the method of Referential example 2, and on day 3, eyes were extracted from mice, and fixed in 4% paraformaldehyde for 1 hour. After removing the retina, the RPE-choroid tissue was cultured with rat anti-mouse F4/80 (Bio-Rad, Richmond, Calif., USA) and APC conjugated anti-mouse VEGF (C-1; Santa Cruz Biotechnology, Inc.) at […] overnight. […] The regions of infiltrated macrophages and secreted VEGF were measured using ImageJ software.

HUVEC [5] = assay: Tube formation assay in HUVEC with macrophage conditioned medium; type: cell-based, human; conditions: for tube formation: FIG. 6a
Description: Matrigel (Corning) with reduced growth factors was thawed at 4° C. overnight. Each well of the 24-well plate cooled in advance was coated with […] and incubated at 37° C. for 40 minutes. HUVEC (3×10^4 cells) was suspended in EGM-2 medium of 100 μl, and aliquoted in a macrophage conditioned medium of 400 μl, and cultured under the condition of 37° C., 5% CO2 for 12 hours. The macrophage conditioned medium means that 20 mM lactic acid is treated for 24 hours by stimulating macrophages (or macrophages pretreated for 1 hour with α-CHC) and the medium was replaced and then the supernatant was collected.
Endothelial cell tube formation was visualized by Calcein AM (Corning) and then imaging was conducted using Leica CTR6000 fluorescence microscope (Wetzlar, Germany). The number of the capillary-like structure was quantified by manual counting of low-power field (×10). For each well, 5 independent fields were evaluated, and the mean branch number per field (magnification, ×10) was measured.

CNV mice [6] = assay: Quantification of choroidal neovascularization (IB4 staining) in CNV mice; type: in vivo, mouse; conditions: RPE-choroid tissue of CNV mice, day 7 after laser irradiation; vehicle group 141,472.9±49,186; FIG. 8f, 8g
Description: as §6
For evaluation of CNV, on day 1 after laser irradiation, PBS or α-CHC was injected in eyes, and in 6 days (on day 7 after laser irradiation), the RPE-choroid tissue isolated from the eyes of CNV mice was immunohistologically stained with Alexa-Fluor 594-conjugated IB4 (isolectin B4) (Molecular Probes) to visualize CNV. Images obtained by Olympus FV1000 Confocal Scanning Scope were treated in IMARIS imaging software (Bitplane, Zurich, Switzerland) to quantify the IB4-positive CNV amount.

CNV mice [7] = assay: Flow cytometry for VEGF in macrophages of CNV mice after intravitreal injection; type: in vivo, mouse; conditions: intravitreal 3 mM α-CHC 2 μl on day 1 after laser, vs vehicle group, FIG. 8a, 8b
Description: as §7, §8
After laser irradiation, on day 1, 3, 7, 14 and 21, laser-irradiated eyes were extracted. […]
Cells labeled using LSR-II cytometer (BD Biosciences, San Jose, Calif., USA) were analyzed and data were analyzed using FlowJo software (version 7.6.2, Ashland, Oreg., USA).

HUVEC [8] = assay: VEGF expression in lactic acid-treated HUVEC; type: cell-based, human; conditions: 10 mM lactic acid vs untreated control, FIG. 4b
Description: as §1
The confluent ARPE-19 monolayer cells maintained in the 24-well plate were incubated with 10 mM L(+)-lactic acid (Sigma-Aldrich Corp.) under presence or absence of α-CHC (α-cyano-4-hydroxycinnamic acid; Sigma-Aldrich) which was an MCT inhibitor (monocarboxylate transporter inhibitor) of 3 mM for a specified period. […]
as §3, with “In 12 minutes at 95° C., a cycle consisting of 10 seconds at 95° C. and 30 seconds at 60° C. was performed 50 times.” left out

ARPE-19 = assay: VEGF expression in lactic acid-treated ARPE-19 retinal pigment epithelium cells; type: cell-based, human; conditions: ARPE-19, 10 mM lactic acid vs untreated control; FIG. 4a
Description: Human APRE-19 cells were obtained from ATCC (Manassas, Va., USA), and were cultured in DMEM (Dulbecco's modified Eagle's medium)/F12 medium (1:1, USA) supplemented by 10% bovine fetal serum (FBS) (Gibco, Carlsbad, Calif.), 1% penicillin-streptomycin (Gibco) and 2 mM L-glutamine (Gibco) in a wet incubator under the conditions of 37° C., 5% CO2. For ARPE-19 monolayer culture, ARPE-19 cells were inoculated in a 24-well tissue culture plate (1.53105 cells per well; Corning, Corning, N.Y., USA) and were maintained in DMEM/F12 medium in which serum was reduced (1% FBS). Confluent monolayer culture having TER (Transepithelial resistance) of 40 Ωcm2 or more was used in the experiment. […]
as §3, with “In 12 minutes at 95° C., a cycle consisting of 10 seconds at 95° C. and 30 seconds at 60° C. was performed 50 times.” left out

CC(C)Cc1nn(C)c(=O)c2c(SCCCO)n(Cc3cccc4ccccc34)cc12 [SR13800]
VEGF secretion (THP-1 macrophages; THP-1 macrophages, 20 mM lactic acid plus SR13800 0.5 to 2 μM vs only lactic acid, dependent on inhibitor concentration, FIG. 9a): reduced
bleeding and angiogenesis increased in the diabetic retinopathy model [1]: significantly reduced
VEGF expression in the RPE-choroid tissue ([2]; RPE-choroid tissue): did not affect
VEGF expression increased in the retinal tissue by induction of diabetic retinopathy ([2]; retinal tissue): significantly reduced

N#CC(=Cc1ccc(O)cc1)C(=O)O [α-CHC, α-cyano-4-hydroxycinnamic acid]
amount of VEGF protein increased by CNV induction (CNV mice [3]): significantly reduced
VEGF secretion (VEGF expression) (THP-1 macrophages; THP-1 macrophages, lactic acid plus α-CHC vs only lactic acid, dependent on inhibitor concentration, FIG. 5): reduced
bleeding and angiogenesis increased in the diabetic retinopathy model [1]: reduced
VEGF positive region in the F4/80 stained macrophage region (CNV mice [4]; intravitreal injection, vehicle group 523,378±165,071, FIG. 8c, 8d): 383,738±196,716 μm2
area of infiltrated macrophages (CNV mice [4]; vs vehicle group, FIG. 8d): no significant difference
number of branches (HUVEC [5]; HUVEC with supernatant of macrophages pretreated with α-CHC then lactic acid, vs only lactic acid, FIG. 6b): significantly reduced
tube formation (HUVEC [5]; HUVEC with supernatant of macrophages pretreated with α-CHC then lactic acid): reduced
IB4-positive endothelial cells (CNV amount) (CNV mice [6]): 74,160.6±12,339.5 μm^3
VEGF expression (relative mean fluorescence intensity) (CNV mice [7]): significantly reduced

CC(O)C(=O)O (stereo not drawn) [lactic acid, L(+)-lactic acid]
gene transcriptome and protein expression for VEGF (HUVEC [8]): did not change significantly
gene transcriptome and protein expression for VEGF (ARPE-19): did not change significantly
increase of VEGF expression after treatment of lactic acid (THP-1 macrophages; PMA-differentiated THP-1 macrophages, 20 mM lactic acid vs untreated control, FIG. 4c): ≥ 3 times
increase of VEGF secretion after stimulating with lactic acid (THP-1 macrophages; THP-1 macrophages, 24 hours, FIG. 5): about 5 times
increase of number of branches (HUVEC [5]; HUVEC with supernatant of lactic acid-stimulated macrophages vs lactic acid untreated group, FIG. 6b): about 5 times
tube formation (HUVEC [5]; HUVEC with supernatant of macrophages stimulated with 20 mM lactic acid): significantly increased

Cc1n[nH]c(C)c1Cc1sc2c(c1C(=O)N1C[C@H](O)CO1)c(=O)n(C)c(=O)n2CC(C)C [AR-C155858]
VEGF expression increased by lactic acid (THP-1 macrophages; THP-1 macrophages, 20 mM lactic acid plus AR-C155858 300 to 500 nM, FIG. 9b): does not show significant changes
